Results on one compound are retold here after patent publication US12594268B2, “Methods of treating Fabry disease in patients having a mutation in the GLA gene” (Amicus Therapeutics, Inc., priority 2018, dated 2026).

Common to all, as to type: cell-based
The target of one assay is T1, α-Gal A mutant form N34H (Homo sapiens, UniProt P06280, N34H).
T1 construct: expressed in transfected cells; host or cells: HEK-293
T1 sequence (P06280 32-429 N34H): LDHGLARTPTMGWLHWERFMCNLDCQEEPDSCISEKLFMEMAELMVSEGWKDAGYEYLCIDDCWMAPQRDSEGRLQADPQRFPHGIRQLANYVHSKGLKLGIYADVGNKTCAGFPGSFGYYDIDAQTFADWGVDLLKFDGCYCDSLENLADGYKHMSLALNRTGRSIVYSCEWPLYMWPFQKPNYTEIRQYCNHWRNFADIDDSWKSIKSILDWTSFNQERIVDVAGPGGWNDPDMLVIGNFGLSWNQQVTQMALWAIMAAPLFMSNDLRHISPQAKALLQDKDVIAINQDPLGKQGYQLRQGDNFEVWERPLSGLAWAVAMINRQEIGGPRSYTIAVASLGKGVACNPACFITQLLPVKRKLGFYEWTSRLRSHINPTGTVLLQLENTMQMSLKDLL
Kind of assay: α-Gal A activity in lysates of transfected HEK-293 cells, N34H. How it is done: (§1) Baseline and 10 μM migalastat α-Gal A activity: Differences in the α-Gal A activity between lysates incubated in the absence and presence of 10 μM migalastat were determined using a one-tailed, Mann Whitney U test; an increase at 10 μM migalastat with a p<0.05 was considered significant.
(§2) 10 μM migalastat α-Gal A activity (% WT)=(α-Gal A activity in mutant transfected cell lysates incubated with 10 μM migalastat÷α-Gal A activity in wild-type transfected cell lysates without migalastat)*100.
(§3) Absolute increase (% WT)=is the 10 μM migalastat α-Gal A activity (% WT) minus the baseline α-Gal A activity (% WT).
(§4) Relative increase is the 10 μM migalastat α-Gal A activity in mutant transfected cell lysates÷baseline α-Gal A activity in mutant transfected cell lysates incubated without migalastat.

A further assay concerns the target T2, α-Gal A mutant form N53K (Homo sapiens, UniProt P06280, N53K).
T2 construct: expressed in transfected cells; host or cells: HEK-293
T2 sequence (P06280 32-429 N53K): T1 sequence (P06280 32-429 N34H) with H3N, N22K
As to the kind of experiment: α-Gal A activity in lysates of transfected HEK-293 cells, N53K. How it is done: as §1, §2, §3, §4

The target of assay [1] is T3, α-Gal A mutant form T194A (Homo sapiens, UniProt P06280, T194A).
T3 construct: expressed in transfected cells; host or cells: HEK-293
T3 sequence (P06280 32-429 T194A): T1 sequence (P06280 32-429 N34H) with H3N, T163A
As to the kind of experiment: α-Gal A activity in lysates of transfected HEK-293 cells, T194A. On the procedure: as §1, §2, §3, §4

Assay [2] has as its target T4, α-Gal A mutant form P380L (Homo sapiens, UniProt P06280, P380L).
T4 construct: expressed in transfected cells; host or cells: HEK-293
T4 sequence (P06280 32-429 P380L): T1 sequence (P06280 32-429 N34H) with H3N, P349L
Kind of assay: α-Gal A activity in lysates of transfected HEK-293 cells, P380L. On the procedure: as §1, §2, §3, §4

The target in assay [3] is T5, α-Gal A mutant form Q250K (Homo sapiens, UniProt P06280, Q250K).
T5 construct: expressed in transfected cells; host or cells: HEK-293
T5 sequence (P06280 32-429 Q250K): T1 sequence (P06280 32-429 N34H) with H3N, Q219K
As to the kind of experiment: α-Gal A activity in lysates of transfected HEK-293 cells, Q250K. On the procedure: as §1, §2, §3, §4

Where [4] appears, read: HEK-293 lysates, 10 μM migalastat, 5 days, mean ± SEM.
Setting [5] is: 10 μM migalastat minus baseline.
The mark [6] stands for this setting: 10 μM migalastat ÷ baseline activity.
Where [7] appears, read: HEK-293 lysates, 10 nM migalastat as printed, 5 days, mean ± SEM.

Positions count from the first letter of the chain named.

For `OC[C@H]1NC[C@H](O)[C@@H](O)[C@H]1O` [migalastat, (2R,3S,4R,5S)-2-(hydroxymethyl) piperdine-3,4,5-triol], the “Absolute increase (% WT)” value on α-Gal A mutant form N34H (10 μM migalastat minus baseline (baseline BLD)) stood at 3.6 % WT; on α-Gal A mutant form N53K (setting [5]) it was 24.0 % WT; in assay [1] (setting [5]), 19.7 % WT; in assay [2] (setting [5]), 7.1 % WT; in assay [3] (setting [5]), 25.5 % WT. Moreover, the “10 μM migalastat α-Gal A activity (% WT)” value at α-Gal A mutant form N34H (setting [4]) is reported as 3.6 ± 0.2 % WT; at α-Gal A mutant form N53K (setting [4]), 38.6 ± 2.5 % WT; in assay [1] (setting [4]), 30.5 ± 2.0 % WT; in assay [2] (setting [4]), 10.6 ± 1.0 % WT; in assay [3] (setting [4]), 41.6 ± 3.1 % WT. The “10 μM migalastat α-Gal A activity” value on α-Gal A mutant form N34H (HEK-293 lysates, 10 μM migalastat, 5 days, mean ± SEM, baseline BLD) was found to be 1414 ± 100 nmol/mg/h; on α-Gal A mutant form N53K (setting [4]) it was 13895 ± 1270 nmol/mg/h; in assay [2] (setting [4]), 4248 ± 369 nmol/mg/h. Besides, the Relative increase at α-Gal A mutant form N53K (setting [6]) was found to be 2.70; in assay [1] (setting [6]), 2.75; in assay [2] (setting [6]) it was 2.98; in assay [3] (setting [6]) it was 2.58. Moreover, the “10 nM migalastat α-Gal A activity” value in assay [1] (setting [7]) is 10315 ± 459 nmol/mg/h; in assay [3] (setting [7]), 11325 ± 1111 nmol/mg/h.
